Results reported in paper PMC6658998, “Pharmacological characterization of the seven human NOX isoforms and their inhibitors” (Redox Biology, 2019).
Like-named read-outs stand apart in the source and are kept apart here.

Legend:
NOX5 [1] = biological target: T1, NOX5 (Homo sapiens, UniProt Q96PH1); assay: WST-1 O2•- detection in NOX5-expressing HEK293 cells; assay type: cell-based; settings: WST-1, PMA 0.1 μM and ionomycin 1 μM; read-out: IC50 NOX5 (HEK) WST-1
T1 construct: expressed in transfected cells
T1 sequence (Q96PH1 19-737 isoform Q96PH1-3 limits assumed): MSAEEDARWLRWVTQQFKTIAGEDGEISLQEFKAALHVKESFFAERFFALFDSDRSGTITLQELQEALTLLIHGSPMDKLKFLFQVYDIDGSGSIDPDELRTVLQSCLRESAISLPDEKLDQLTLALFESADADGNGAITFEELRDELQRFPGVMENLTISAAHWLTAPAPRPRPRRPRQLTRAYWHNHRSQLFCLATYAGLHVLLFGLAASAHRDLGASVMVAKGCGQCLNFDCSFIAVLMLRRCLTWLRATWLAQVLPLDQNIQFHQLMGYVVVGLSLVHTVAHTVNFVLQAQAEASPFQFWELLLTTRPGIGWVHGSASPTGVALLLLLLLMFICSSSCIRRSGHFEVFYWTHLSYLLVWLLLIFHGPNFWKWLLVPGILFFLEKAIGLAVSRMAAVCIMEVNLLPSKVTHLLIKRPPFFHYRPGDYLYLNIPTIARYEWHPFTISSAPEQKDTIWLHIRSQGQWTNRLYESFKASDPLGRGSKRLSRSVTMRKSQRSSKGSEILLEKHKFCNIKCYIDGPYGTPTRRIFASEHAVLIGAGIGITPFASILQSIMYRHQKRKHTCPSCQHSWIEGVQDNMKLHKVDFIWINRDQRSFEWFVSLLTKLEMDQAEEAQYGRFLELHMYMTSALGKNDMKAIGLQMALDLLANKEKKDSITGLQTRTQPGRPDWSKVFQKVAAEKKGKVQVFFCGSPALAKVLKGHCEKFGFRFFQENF

[2] = Cell-free Amplex Red/HRP assay with 10 μM H2O2 (H2O2 scavenging / HRP inhibition); settings: 10 μM H2O2, Amplex Red/HRP, read-out: Scavenging effect IC50 AR H2O2
human NOX4 = biological target: T2, human NOX4 (Homo sapiens, UniProt Q9NPH5); assay: Amplex Red/HRP H2O2 detection in tetracycline-induced NOX4 HEK293 T-REx cells
T2 sequence (Q9NPH5 1-578): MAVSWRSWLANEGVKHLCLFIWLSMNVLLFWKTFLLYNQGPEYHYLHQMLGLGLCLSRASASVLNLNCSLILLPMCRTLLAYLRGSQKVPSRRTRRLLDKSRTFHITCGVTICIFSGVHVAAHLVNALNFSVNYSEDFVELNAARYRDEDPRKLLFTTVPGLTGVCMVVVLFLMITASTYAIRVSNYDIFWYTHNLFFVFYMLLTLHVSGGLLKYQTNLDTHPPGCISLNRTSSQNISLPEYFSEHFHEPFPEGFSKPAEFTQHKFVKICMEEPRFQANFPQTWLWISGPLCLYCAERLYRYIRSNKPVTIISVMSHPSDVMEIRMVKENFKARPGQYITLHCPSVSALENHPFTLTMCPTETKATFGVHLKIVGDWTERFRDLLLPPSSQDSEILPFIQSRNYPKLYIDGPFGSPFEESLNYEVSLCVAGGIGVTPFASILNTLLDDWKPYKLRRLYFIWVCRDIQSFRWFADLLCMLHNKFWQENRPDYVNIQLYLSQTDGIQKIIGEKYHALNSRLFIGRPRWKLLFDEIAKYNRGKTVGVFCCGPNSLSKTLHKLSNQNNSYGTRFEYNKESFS
T2 sequence (P13498 1-195 partner): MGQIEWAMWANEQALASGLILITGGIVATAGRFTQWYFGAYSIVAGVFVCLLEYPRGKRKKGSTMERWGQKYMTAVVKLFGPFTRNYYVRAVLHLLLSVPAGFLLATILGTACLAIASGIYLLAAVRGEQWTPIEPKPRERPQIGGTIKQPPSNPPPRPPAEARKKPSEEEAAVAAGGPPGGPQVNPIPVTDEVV

NOX5 [3] = biological target: T1, NOX5; assay: Amplex Red/HRP H2O2 detection in NOX5-expressing HEK293 cells; assay type: cell-based; settings: PMA 0.1 μM and ionomycin 1 μM, read-out: IC50 NOX5 (HEK) AR
NOX2 = biological target: T3, NOX2 (Homo sapiens, UniProt P04839); assay: Amplex Red/HRP H2O2 detection in differentiated PLB-985 cells (NOX2)
T3 sequence (P04839 2-570 limits assumed): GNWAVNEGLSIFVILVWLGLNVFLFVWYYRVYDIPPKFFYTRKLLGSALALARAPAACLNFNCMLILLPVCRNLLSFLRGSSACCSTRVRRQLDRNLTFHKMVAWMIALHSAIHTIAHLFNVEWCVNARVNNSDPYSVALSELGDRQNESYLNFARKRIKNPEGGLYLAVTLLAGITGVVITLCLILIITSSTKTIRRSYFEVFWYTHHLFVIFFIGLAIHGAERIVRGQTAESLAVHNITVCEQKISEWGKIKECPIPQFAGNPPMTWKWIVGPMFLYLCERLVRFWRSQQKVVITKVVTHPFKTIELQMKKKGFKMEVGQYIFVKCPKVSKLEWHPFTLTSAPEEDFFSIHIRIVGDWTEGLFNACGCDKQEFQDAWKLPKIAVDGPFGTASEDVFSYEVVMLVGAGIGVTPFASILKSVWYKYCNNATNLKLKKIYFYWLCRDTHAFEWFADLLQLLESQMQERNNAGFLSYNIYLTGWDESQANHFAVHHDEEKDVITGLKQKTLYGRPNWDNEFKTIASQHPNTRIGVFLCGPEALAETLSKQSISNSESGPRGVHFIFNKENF
T3 sequence (P13498 1-195 partner): T2 sequence (P13498 1-195 partner)

DUOX1 = biological target: T4, DUOX1 (Homo sapiens, UniProt Q9NRD9); assay: Amplex Red/HRP H2O2 detection in DUOX1-expressing HEK293 cells; assay type: cell-based
T4 construct: expressed in transfected cells; host or cells: HEK293, selected with G418 and zeocin

[4] = Amplex red/HRP, PMA 0.1 μM and ionomycin 1 μM, read-out: IC50 DUOX1 (HEK) AR

T4 sequence (Q9NRD9 22-1551): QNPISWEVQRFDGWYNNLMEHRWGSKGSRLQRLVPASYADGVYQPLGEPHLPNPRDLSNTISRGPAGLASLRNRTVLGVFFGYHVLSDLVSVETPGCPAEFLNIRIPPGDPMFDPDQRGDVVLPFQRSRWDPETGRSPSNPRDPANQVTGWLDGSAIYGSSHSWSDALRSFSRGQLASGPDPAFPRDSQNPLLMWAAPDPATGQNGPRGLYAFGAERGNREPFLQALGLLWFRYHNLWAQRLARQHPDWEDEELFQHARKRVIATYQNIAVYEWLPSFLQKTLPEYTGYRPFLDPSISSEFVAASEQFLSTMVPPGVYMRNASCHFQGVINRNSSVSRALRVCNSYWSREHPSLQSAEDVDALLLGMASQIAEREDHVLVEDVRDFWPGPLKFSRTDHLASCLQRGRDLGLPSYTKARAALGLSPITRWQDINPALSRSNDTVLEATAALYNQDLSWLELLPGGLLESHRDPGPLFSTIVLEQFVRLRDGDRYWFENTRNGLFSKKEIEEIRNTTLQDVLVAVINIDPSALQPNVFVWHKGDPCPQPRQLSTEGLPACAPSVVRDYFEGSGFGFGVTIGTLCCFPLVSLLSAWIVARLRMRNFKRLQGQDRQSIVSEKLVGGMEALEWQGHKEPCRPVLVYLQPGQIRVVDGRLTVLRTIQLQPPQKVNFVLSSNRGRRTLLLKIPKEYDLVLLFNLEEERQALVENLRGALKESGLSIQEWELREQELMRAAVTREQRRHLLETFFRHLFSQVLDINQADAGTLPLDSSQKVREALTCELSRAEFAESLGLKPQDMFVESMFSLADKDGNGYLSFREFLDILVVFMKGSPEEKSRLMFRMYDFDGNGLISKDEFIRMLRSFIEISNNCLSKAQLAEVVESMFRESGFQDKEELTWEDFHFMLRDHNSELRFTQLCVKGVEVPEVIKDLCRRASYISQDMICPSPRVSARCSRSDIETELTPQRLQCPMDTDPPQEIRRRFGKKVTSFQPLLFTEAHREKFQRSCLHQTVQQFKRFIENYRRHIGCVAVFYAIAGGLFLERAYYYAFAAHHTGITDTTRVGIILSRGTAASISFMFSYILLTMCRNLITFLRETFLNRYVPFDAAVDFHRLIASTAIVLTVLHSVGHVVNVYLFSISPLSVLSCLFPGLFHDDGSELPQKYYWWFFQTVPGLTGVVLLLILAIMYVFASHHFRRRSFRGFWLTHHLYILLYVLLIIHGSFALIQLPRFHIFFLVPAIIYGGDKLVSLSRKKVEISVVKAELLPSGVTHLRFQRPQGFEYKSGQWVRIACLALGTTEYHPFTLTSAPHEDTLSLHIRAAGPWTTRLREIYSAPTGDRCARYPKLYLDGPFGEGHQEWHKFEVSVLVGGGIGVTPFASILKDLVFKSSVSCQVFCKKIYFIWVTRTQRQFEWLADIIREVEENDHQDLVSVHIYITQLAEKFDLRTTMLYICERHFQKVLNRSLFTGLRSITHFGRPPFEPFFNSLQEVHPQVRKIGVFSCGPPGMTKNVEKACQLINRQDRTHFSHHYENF
T4 sequence (Q1HG43 whole entry partner): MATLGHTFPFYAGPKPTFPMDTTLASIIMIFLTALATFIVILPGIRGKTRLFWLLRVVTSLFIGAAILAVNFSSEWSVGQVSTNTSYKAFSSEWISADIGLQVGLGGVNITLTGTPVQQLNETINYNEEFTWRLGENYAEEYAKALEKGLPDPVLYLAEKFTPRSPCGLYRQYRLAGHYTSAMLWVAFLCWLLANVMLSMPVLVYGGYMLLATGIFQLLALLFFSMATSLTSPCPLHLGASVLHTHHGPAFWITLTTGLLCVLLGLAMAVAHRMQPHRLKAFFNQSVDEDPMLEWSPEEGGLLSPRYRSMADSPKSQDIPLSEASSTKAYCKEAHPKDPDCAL

IC50 (NOX5 [1]) | IC50 [2] | IC50 (human NOX4) | IC50 (NOX5 [3]) | IC50 (NOX2) | IC50 (DUOX1; [4]) | Compound | IC50 (DUOX1)
> 50 µM | > 50 µM | > 50 µM | > 50 µM | > 50 µM | > 50 µM | COc1cc(C(C)=O)ccc1O [Apocynin, apocynin] | 
> 50 µM | 11.5 µM | > 50 µM | 16.6 µM | 38.9 µM | 13.6 µM | COc1cc(C(C)=O)cc(-c2cc(C(C)=O)cc(OC)c2O)c1O [Diapocynin, diapocynin] | 
> 50 µM | 1.9 µM | 2.7 µM | 8 µM | 12.2 µM | 5.9 µM | Cc1c2c(=O)n(-c3ccccc3Cl)[nH]c2cc(=O)n1Cc1ccccn1 [GKT136901] | 

Compound | IC50 (NOX5 [1]) | IC50 [2] | IC50 (human NOX4) | IC50 (NOX5 [3]) | IC50 (NOX2) | IC50 (DUOX1; [4]) | IC50 (DUOX1)
c1ccc2c(c1)[I+]c1ccccc1-2 [DPI, diphenylene iodonium chloride] |  | > 50 µM |  |  |  |  | 1.4 µM
O=c1c2ccccc2[se]n1-c1ccccc1 [Ebselen, ebselen] |  | 3.3 µM | 4.1 µM | 2.1 µM |  | 4.2 µM | 
